This is an account of results in patent US8685970B2, “Quinolines and related analogs as sirtuin modulators” (GlaxoSmithKline, LLC, priority 2008, dated 2014).

The target in this assay is T1, SIRT1 (Homo sapiens, UniProt Q96EB6).
T1 sequence (Q96EB6 1-747): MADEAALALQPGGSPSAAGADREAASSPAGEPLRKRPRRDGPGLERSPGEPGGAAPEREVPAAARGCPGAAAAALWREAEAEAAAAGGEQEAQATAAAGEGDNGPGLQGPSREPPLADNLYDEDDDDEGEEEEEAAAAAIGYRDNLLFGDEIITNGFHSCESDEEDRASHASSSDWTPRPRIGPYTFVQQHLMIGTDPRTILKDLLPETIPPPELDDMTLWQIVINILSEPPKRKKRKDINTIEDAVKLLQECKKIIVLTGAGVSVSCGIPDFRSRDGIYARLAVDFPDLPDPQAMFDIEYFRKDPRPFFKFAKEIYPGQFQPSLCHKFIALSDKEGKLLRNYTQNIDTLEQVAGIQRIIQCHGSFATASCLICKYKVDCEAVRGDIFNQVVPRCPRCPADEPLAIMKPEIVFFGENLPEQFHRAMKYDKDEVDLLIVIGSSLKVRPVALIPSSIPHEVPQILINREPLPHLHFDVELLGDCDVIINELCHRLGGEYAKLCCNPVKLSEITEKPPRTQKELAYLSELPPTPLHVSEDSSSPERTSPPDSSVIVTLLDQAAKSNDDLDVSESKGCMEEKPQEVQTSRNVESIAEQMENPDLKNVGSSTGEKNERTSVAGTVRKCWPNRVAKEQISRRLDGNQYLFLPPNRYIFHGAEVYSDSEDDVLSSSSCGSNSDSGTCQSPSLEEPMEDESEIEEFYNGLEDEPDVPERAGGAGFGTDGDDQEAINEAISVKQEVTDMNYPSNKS
Description: Mass spectrometry based SIRT1 deacetylation assay (activation). Type of assay: biochemical. The settings on record: 10 nM SIRT1, 0.5 μM peptide substrate, 120 μM βNAD+, 25 min at 25° C. The essentials: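 Activation reported as EC1.5, the compound concentration producing 150% of DMSO-control deacetylation, plus maximum fold activation. Readout is mass-spectrometric ratio of deacetylated to acetylated p53-based peptide (0.5 μM) after 25 min, 25 °C, with 120 μM βNAD+ and 10 nM His-tagged human SIRT1, pH 8.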
Take `O=C(Nc1ncnc2ccc(-c3cccc(C(F)(F)F)c3)nc12)c1cccc(C(F)(F)F)c1` [Compound 258]: the “EC1.5 (concentration of test compound that results in 150% activation of SIRT1)” value was “C (EC1.5>25 uM)”.

With `O=C(Nc1nc(CN2CCCC2)cs1)c1cccc2ccc(-c3cccc(OC(F)(F)F)c3)nc12` [Compound 148], the “% Fold Act. (percent maximum fold activation)” value is “A (Fold activation >200%)” and the “EC1.5 (concentration of test compound that results in 150% activation of SIRT1)” value is reported as “A (EC1.5<1.0 uM)”.

For the compound `O=C(Nc1nncs1)c1cccc2ccc(-c3cccc(N4CCOCC4)c3)nc12` [Compound 251], the “% Fold Act. (percent maximum fold activation)” value is “A (Fold activation >200%)” and the “EC1.5 (concentration of test compound that results in 150% activation of SIRT1)” value is given as “A (EC1.5<1.0 uM)”.

`Cc1cnc(NC(=O)c2cccc3ccc(-c4ccnc(C(F)F)c4)nc23)s1` [Compound 307]: the “EC1.5 (concentration of test compound that results in 150% activation of SIRT1)” value was “C (EC1.5>25 uM)”.

For `Cc1nc(NC(=O)c2cccc3ccc(-c4cccc(N5CCOCC5)c4)nc23)sc1C` [Compound 240], the “% Fold Act. (percent maximum fold activation)” value was “A (Fold activation >200%)” and the “EC1.5 (concentration of test compound that results in 150% activation of SIRT1)” value is listed as “A (EC1.5<1.0 uM)”.

On to `O=C(Nc1cccnc1)c1cccc2ncc(-c3cccc(OC(F)(F)F)c3)nc12` [Compound 126], for which the “% Fold Act. (percent maximum fold activation)” value is reported as “B (Fold Activation <200%)” and the “EC1.5 (concentration of test compound that results in 150% activation of SIRT1)” value was “B (EC1.5 1-25 uM)”.

Take `O=C(Nc1ccncn1)c1cccc2ncc(-c3cccc(C(F)(F)F)c3)nc12` [Compound 130]: the “% Fold Act. (percent maximum fold activation)” value is reported as “B (Fold Activation <200%)” and the “EC1.5 (concentration of test compound that results in 150% activation of SIRT1)” value was “A (EC1.5<1.0 uM)”.

On to `O=C(Nc1ccccn1)c1cccc2ccc(-c3cccc(N4CCOCC4)c3)nc12` [Compound 109], for which the “% Fold Act. (percent maximum fold activation)” value is reported as “A (Fold activation >200%)” and the “EC1.5 (concentration of test compound that results in 150% activation of SIRT1)” value was “A (EC1.5<1.0 uM)”.

Regarding `FC(F)(F)Oc1cccc(-c2ccc3cccc(NCc4ccccn4)c3n2)c1` [Compound 65], the “EC1.5 (concentration of test compound that results in 150% activation of SIRT1)” value is recorded as “C (EC1.5>25 uM)”.

Take `Cc1csc(NC(=O)c2cccc3ccc(-c4cccc(N5CCOCC5)c4)nc23)n1` [Compound 238]: the “% Fold Act. (percent maximum fold activation)” value is “A (Fold activation >200%)” and the “EC1.5 (concentration of test compound that results in 150% activation of SIRT1)” value is “A (EC1.5<1.0 uM)”.

With `O=C(Nc1ccc(F)cn1)c1cccc2ccc(-c3cccc(N4CCOCC4)c3)nc12` [Compound 277], the “% Fold Act. (percent maximum fold activation)” value is “A (Fold activation >200%)” and the “EC1.5 (concentration of test compound that results in 150% activation of SIRT1)” value is given as “A (EC1.5<1.0 uM)”.

Consider `Cc1cncc(-c2ccc3cccc(C(=O)Nc4cccc(CN5CCOCC5)c4)c3n2)c1` [Compound 243], for which the “% Fold Act. (percent maximum fold activation)” value was “A (Fold activation >200%)” and the “EC1.5 (concentration of test compound that results in 150% activation of SIRT1)” value was “A (EC1.5<1.0 uM)”.

Regarding `O=C(Nc1cccc2ccc(-c3ccncc3)nc12)c1cscn1` [Compound 77], the “% Fold Act. (percent maximum fold activation)” value was “A (Fold activation >200%)” and the “EC1.5 (concentration of test compound that results in 150% activation of SIRT1)” value was “A (EC1.5<1.0 uM)”.

On to `CS(=O)(=O)c1ccc(-c2ccc3cccc(NC(=O)c4cscn4)c3n2)cc1` [Compound 106], for which the “% Fold Act. (percent maximum fold activation)” value is given as “B (Fold Activation <200%)” and the “EC1.5 (concentration of test compound that results in 150% activation of SIRT1)” value is “B (EC1.5 1-25 uM)”.

As to `O=C(Nc1nncs1)c1cccc2ccc(-c3cccc(C(F)(F)F)c3)nc12` [Compound 28], the “% Fold Act. (percent maximum fold activation)” value is listed as “A (Fold activation >200%)” and the “EC1.5 (concentration of test compound that results in 150% activation of SIRT1)” value is “A (EC1.5<1.0 uM)”.

`FC(F)(F)c1cccc(-c2ccc3cccc(CNC4CCCC4)c3n2)c1` [Compound 143]: the “EC1.5 (concentration of test compound that results in 150% activation of SIRT1)” value was “C (EC1.5>25 uM)”.

On to `Cc1ccc(-c2ccc3cccc(NC(=O)c4cscn4)c3n2)cc1` [Compound 212], for which the “% Fold Act. (percent maximum fold activation)” value is reported as “B (Fold Activation <200%)” and the “EC1.5 (concentration of test compound that results in 150% activation of SIRT1)” value was “B (EC1.5 1-25 uM)”.

As to `Cc1nc(NC(=O)c2cccc3ccc(-c4cccc(C(F)(F)F)c4)nc23)sc1C` [Compound 52], the “% Fold Act. (percent maximum fold activation)” value is reported as “A (Fold activation >200%)” and the “EC1.5 (concentration of test compound that results in 150% activation of SIRT1)” value was “A (EC1.5<1.0 uM)”.

Take `O=C(Nc1nc(CN2CCOCC2)cs1)c1cccc2ccc(-c3cccc(OC(F)(F)F)c3)nc12` [Compound 178]: the “% Fold Act. (percent maximum fold activation)” value was “A (Fold activation >200%)” and the “EC1.5 (concentration of test compound that results in 150% activation of SIRT1)” value is listed as “A (EC1.5<1.0 uM)”.

In the case of `O=C(Nc1ccc(CN2CCCC2)nc1)c1cccc2ccc(-c3cccc(C(F)F)c3)nc12` [Compound 290], the “% Fold Act. (percent maximum fold activation)” value is on record as “A (Fold activation >200%)” and the “EC1.5 (concentration of test compound that results in 150% activation of SIRT1)” value is recorded as “A (EC1.5<1.0 uM)”.

Consider `Cc1nnc(NC(=O)c2cccc3ccc(-c4cccnc4)nc23)o1` [Compound 264], for which the “EC1.5 (concentration of test compound that results in 150% activation of SIRT1)” value is “C (EC1.5>25 uM)”.

Regarding `O=C(Nc1nc(CN2CCCC2)cs1)c1cccc2ccc(-c3cccc(C(F)(F)F)c3)nc12` [Compound 147], the “% Fold Act. (percent maximum fold activation)” value was “A (Fold activation >200%)” and the “EC1.5 (concentration of test compound that results in 150% activation of SIRT1)” value is on record as “A (EC1.5<1.0 uM)”.

With `O=C(NC1CCOC1=O)c1cccc2ccc(-c3cccc(C(F)(F)F)c3)nc12` (stereo not drawn) [Compound 38], the “% Fold Act. (percent maximum fold activation)” value is reported as “A (Fold activation >200%)” and the “EC1.5 (concentration of test compound that results in 150% activation of SIRT1)” value is listed as “B (EC1.5 1-25 uM)”.

Consider `O=S(=O)(Nc1cccc2ccc(-c3cccc(OC(F)(F)F)c3)nc12)N1CCNCC1` [Compound 115], for which the “% Fold Act. (percent maximum fold activation)” value is “B (Fold Activation <200%)” and the “EC1.5 (concentration of test compound that results in 150% activation of SIRT1)” value was “B (EC1.5 1-25 uM)”.

Consider `O=C(Nc1cccnc1)c1cc(F)cc2ccc(-c3cccc(C(F)(F)F)c3)nc12` [Compound 63], for which the “EC1.5 (concentration of test compound that results in 150% activation of SIRT1)” value is listed as “C (EC1.5>25 uM)”.

Regarding `O=C(Nc1ncnc2ccc(-c3cccc(OC(F)(F)F)c3)nc12)c1cscn1` [Compound 301], the “% Fold Act. (percent maximum fold activation)” value was “A (Fold activation >200%)” and the “EC1.5 (concentration of test compound that results in 150% activation of SIRT1)” value is reported as “A (EC1.5<1.0 uM)”.

For `O=C(Nc1nccs1)c1cccc2cnc(-c3cccnc3)nc12` [Compound 280], the “EC1.5 (concentration of test compound that results in 150% activation of SIRT1)” value is on record as “C (EC1.5>25 uM)”.

Take `Cn1ccc(C(=O)Nc2cccc3ccc(-c4cncc(F)c4)nc23)n1` [Compound 284]: the “EC1.5 (concentration of test compound that results in 150% activation of SIRT1)” value was “C (EC1.5>25 uM)”.

As to `O=S(=O)(Nc1cccc2ccc(-c3cccc(OC(F)(F)F)c3)nc12)N1CCCC1` [Compound 112], the “EC1.5 (concentration of test compound that results in 150% activation of SIRT1)” value was “C (EC1.5>25 uM)”.

As for `O=C(Nc1ccncn1)c1cccc2ccc(-c3ccnc(C(F)F)c3)nc12` [Compound 308], the “% Fold Act. (percent maximum fold activation)” value is recorded as “A (Fold activation >200%)” and the “EC1.5 (concentration of test compound that results in 150% activation of SIRT1)” value is recorded as “A (EC1.5<1.0 uM)”.

On to `Cc1cc(NC(=O)c2cccc3ccc(-c4cccnc4)nc23)sn1` [Compound 236], for which the “EC1.5 (concentration of test compound that results in 150% activation of SIRT1)” value is “C (EC1.5>25 uM)”.

Consider `O=C(Nc1cccc2ccc(-c3cccc(C(F)(F)F)c3)nc12)c1cccc(OC[C@@H](O)CO)c1` [Compound 187], for which the “% Fold Act. (percent maximum fold activation)” value is “A (Fold activation >200%)” and the “EC1.5 (concentration of test compound that results in 150% activation of SIRT1)” value is “A (EC1.5<1.0 uM)”.

Turning to `O=C(Nc1ncnc2ccc(-c3cccc(C(F)(F)F)c3)nc12)c1ccc(CN2CCCC2)cc1` [Compound 312], the “% Fold Act. (percent maximum fold activation)” value is “A (Fold activation >200%)” and the “EC1.5 (concentration of test compound that results in 150% activation of SIRT1)” value is listed as “B (EC1.5 1-25 uM)”.

On to `FC(F)(F)c1cccc(-c2ccc3cccc(CNC4CCOCC4)c3n2)c1` [Compound 144], for which the “EC1.5 (concentration of test compound that results in 150% activation of SIRT1)” value was “C (EC1.5>25 uM)”.

`FC(F)(F)c1ccc(-c2ccc3cccc(NCc4cccnc4)c3n2)cc1` [Compound 171]: the “EC1.5 (concentration of test compound that results in 150% activation of SIRT1)” value is reported as “C (EC1.5>25 uM)”.

In the case of `O=C(Nc1nccs1)c1cccc2ncc(-c3ccccc3)nc12` [Compound 116], the “EC1.5 (concentration of test compound that results in 150% activation of SIRT1)” value is on record as “C (EC1.5>25 uM)”.

Take `CS(=O)(=O)c1cncc(-c2ccc3cccc(NC(=O)c4cscn4)c3n2)c1` [Compound 229]: the “% Fold Act. (percent maximum fold activation)” value is “A (Fold activation >200%)” and the “EC1.5 (concentration of test compound that results in 150% activation of SIRT1)” value is reported as “B (EC1.5 1-25 uM)”.

For `O=C(Nc1ncnc2ccc(-c3cccc(C(F)(F)F)c3)nc12)c1cncs1` [Compound 300], the “% Fold Act. (percent maximum fold activation)” value is “A (Fold activation >200%)” and the “EC1.5 (concentration of test compound that results in 150% activation of SIRT1)” value is on record as “B (EC1.5 1-25 uM)”.
